Measured values from ChEMBL document CHEMBL4706752 (ACS Med Chem Lett, 2021).
pIC50: −log10 of the molar value.

Legend:
[1] = molecular target: Cytochrome P450 2C9 (Homo sapiens, UniProt P11712); assay: Inhibition of CYP2C9 (unknown origin); assay type: ADME
[2] = Cmax in cynomolgus monkey at 2 mg/kg, po; assay type: ADME, organism-based, Macaca fascicularis; design: route oral, dose 2 mg/kg; conditions: in vivo
[3] = Protein binding in human serum assessed as fraction unbound; assay type: ADME, cell-free; conditions: read-out: PB
[4] = Unbound volume of distribution at steady state in Sprague-Dawley rat at 2 mg/kg, iv; assay type: ADME, organism-based; conditions: in vivo
[5] = Apparent permeability across apical to basolateral membrane in human Caco2 cells; assay type: ADME, cell-based; conditions: Caco-2
[6] = system: Mus musculus; assay: Suppression of ear thickness in C57BL/6 mouse model of IL-23 induced acanthosis model of psoriasis assessed as AUC of %change in ear thickness at 5 mg/kg, po BID for 10 days measured every other day; assay type: functional; conditions: time 10 day
[7] = Decrease in IL-6 gene expression in C57BL/6 mouse model of IL-23 induced acanthosis model of psoriasis at 5 mg/kg, po BID for 10 days by RT-PCR analysis; assay type: functional; conditions: C57BL/6, po, 240 h, time 10 day
[8] = molecular target: T1, Cytochrome P450 2C8 (Homo sapiens, UniProt P10632); assay: Inhibition of CYP2C8 (unknown origin); assay type: ADME
T1 sequence (P10632 whole entry): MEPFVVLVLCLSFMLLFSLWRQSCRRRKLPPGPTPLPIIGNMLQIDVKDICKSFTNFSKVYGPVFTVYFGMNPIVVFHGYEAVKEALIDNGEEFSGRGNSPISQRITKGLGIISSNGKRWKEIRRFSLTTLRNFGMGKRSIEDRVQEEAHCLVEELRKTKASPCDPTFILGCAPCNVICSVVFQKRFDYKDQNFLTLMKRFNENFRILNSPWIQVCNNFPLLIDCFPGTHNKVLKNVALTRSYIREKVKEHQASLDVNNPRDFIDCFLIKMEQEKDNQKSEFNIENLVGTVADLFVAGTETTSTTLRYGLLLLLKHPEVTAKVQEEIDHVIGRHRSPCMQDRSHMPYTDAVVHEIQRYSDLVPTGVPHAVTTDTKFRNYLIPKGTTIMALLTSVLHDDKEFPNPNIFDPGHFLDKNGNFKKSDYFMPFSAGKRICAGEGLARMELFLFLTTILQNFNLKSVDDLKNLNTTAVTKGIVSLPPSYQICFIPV

[9] = Metabolic stability in human liver microsomes assessed as compound remaining after 10 mins; assay type: ADME, Microsome; conditions: read-out: Stabilty
[10] = Tmax in Sprague-Dawley rat at 4 mg/kg, po; assay type: ADME, organism-based; conditions: in vivo
[11] = Protein binding in mouse serum assessed as fraction unbound; assay type: ADME, cell-free; conditions: read-out: PB
[12] = system: Mus musculus; assay: Suppression of ear thickness in C57BL/6 mouse model of IL-23 induced acanthosis model of psoriasis assessed as AUC of %change in ear thickness at 20 mg/kg, po BID for 10 days measured every other day; assay type: functional; conditions: time 10 day
[13] = Unbound volume of distribution at steady state in Balb/c mouse at 2 mg/kg, iv; assay type: ADME, organism-based; conditions: in vivo

Sequence of Cytochrome P450 2C9 (P11712 whole entry): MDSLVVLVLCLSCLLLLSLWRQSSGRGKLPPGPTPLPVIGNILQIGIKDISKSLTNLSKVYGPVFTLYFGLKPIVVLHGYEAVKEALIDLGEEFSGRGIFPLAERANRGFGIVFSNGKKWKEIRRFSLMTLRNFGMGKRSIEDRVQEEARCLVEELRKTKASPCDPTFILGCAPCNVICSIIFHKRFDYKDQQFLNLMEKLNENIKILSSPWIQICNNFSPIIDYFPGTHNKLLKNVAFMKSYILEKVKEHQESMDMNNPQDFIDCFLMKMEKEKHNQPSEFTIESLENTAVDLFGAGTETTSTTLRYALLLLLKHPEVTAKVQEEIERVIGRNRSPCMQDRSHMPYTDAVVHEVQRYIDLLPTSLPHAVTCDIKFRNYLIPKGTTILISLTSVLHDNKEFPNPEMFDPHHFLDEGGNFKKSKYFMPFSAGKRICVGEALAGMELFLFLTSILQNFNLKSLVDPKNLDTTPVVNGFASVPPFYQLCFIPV

Q: What does the source list for `C[C@@](O)(CS(C)(=O)=O)C(=O)N[C@@H]1CC[C@@]2(S(=O)(=O)c3ccc(F)cc3)c3ccc(C(F)(C(F)(F)F)C(F)(F)F)nc3CC[C@@H]12`?
A: pIC50 [1]: < 4.70; Cmax [2]: 600 nM; fraction unbound [3]: 0.022; fVdss [4]: 2.5 L/kg; Papp A→B [5]: 11 ×10⁻⁶ cm/s; Activity [6]: 34.4%; inhibition in vivo at 5 mg/kg [7]: 55.8%; pIC50 [8]: 5.12; remaining at 10 min [9]: 89%; Tmax [10]: 4 h; fraction unbound [11]: 0.015; Activity [12]: 77.2%; fVdss [13]: 2.2 L/kg
